Patent US20260315451A1, “MEDICINE FOR TREATING CANCER” (SCIENCE TECHNOLOGY INTERACT CO., LTD., priority 2022, published 2026)

Legend:
Type in all cases: cell-based, human
[1] = tested on: homologous recombination activity in HeLa cells; experiment: Homologous recombination activity (ASHRA, knock-in efficiency by quantitative PCR; Example 2); settings: control cells and cells with BRCA1 and RAD51 expression suppressed; 48 h culture with drug; FIG. 2B
Text: FIG. 5 illustrates an outline of a method for measuring homologous recombination repair (HR) activity (Assay for site-specific HR activity (ASHRA)) performed in Examples. In this method, a CRISPR/Cas9 system used for genome editing as a site-specific DNA cleaving enzyme is used to create a site-specific DNA double strand break in a target endogenous gene. Then, a fusion gene of a reporter and a target gene is generated by HR between a DNA fragment as a substrate for HR containing the reporter and the target endogenous gene. The production efficiency of the fusion gene of a reporter and a target gene is quantified as the HR repair activity of cell in the cell. For the method for detecting a fusion gene, flow cytometry, Western blotting, quantitative PCR, or the like can be used while changing the reporter. Step 1: Introduce Cas9/guide RNA expression vector and donor vector into cells. […] Step 4: Detecting knock-in efficiency of marker ((1) Western blotting, (2) flow cytometry, (3) quantitative PCR). […]
HeLa cells were seeded on a 3.5 cm dish, and the next day, siRNA was introduced. […] Genome quantitative PCR was performed using Go Taq qPCR master mix (Promega, Madison, WI, USA), measurement was done using CFX96 Touch Real-time PCR detection system (BioRad, Hercules, CA, USA), and knock-in efficiency was calculated by ΔΔCt method. […]

[2] = tested on: γ-H2AX, a marker of DNA double-strand break, in HeLa cells; experiment: γ-H2AX intranuclear foci after X-ray irradiation (DNA double-strand break repair, immunostaining; Example 3); settings: drug 30 min before 1.5 Gy X-ray, 24 h after irradiation, FIG. 3
Experimental: After cell seeding, Nicaraven was added. After 30 minutes, the cells were irradiated with 1.5 Gy of X-ray, and after 2 hours and 24 hours, the cells were fixed and immunostained with an anti-γ-H2AX antibody.
Cells in which five or more γ-H2AX intranuclear foci were observed were counted, and the ratio was calculated and represented in a graph. Respective cells in which less than 5, 5 or more and less than 10, 10 or more and less than 20, and 20 or more γ-H2AX intranuclear foci were observed were counted, and the ratio was calculated and represented in a graph (FIG. 3D).

[3] = tested on: KYSE30 cells; experiment: Cell viability of KYSE30 esophageal cancer cells with siRNA of RAD51 (Example 5); settings: siRNA of RAD51, drug added 24 h later, compared with the control, FIG. 7
[4] = tested on: KYSE270 cells; experiment: Cell viability of KYSE270 esophageal cancer cells with siRNA of control or RAD51 (Example 5); settings: siRNA of RAD51, drug added 24 h later, 5 days culture, FIG. 6B
Experimental: KYSE270 cells and KYSE30 cells (human esophageal squamous cell carcinoma cell line) were purchased from JCRB Cell Bank, National Institutes of Biomedical Innovation, Health and Nutrition (Osaka, Japan). KYSE270 cells and KYSE30 cells were cultured in a medium in which RPMI1640 and Ham's F12 medium (both of which were manufactured by FUJIFILM Wako Pure Chemical Corporation, Osaka, Japan) were mixed in equal amounts and 5% FBS was added at 37° C. in the presence of 5% CO2.
(§1) A stock solution of Nicaraven was prepared by dissolving Nicaraven in DMEM medium at a final concentration of 40 mM and sterilizing the solution through a filter. Olaparib (Adooq Bioscience, Irvine, CA, USA) was prepared as a stock solution of Olaparib in DMSO (FUJIFILM Wako Pure Chemical Corporation, Osaka, Japan) at a final concentration of 50 mM. […]
FIG. 6A. Protocol of an experiment in which cell viability under Olaparib, Nicaraven or Edaravone treatment on cells having reduced homologous recombination activity was analyzed. siRNA of control or RAD51 was introduced into esophageal cancer cells KYSE270 cells, and 24 hours later, either Olaparib or Nicaraven was added. After 5 days of culture, cell viability was measured.

[5] = tested on: HeLa cells; experiment: Cell viability of HeLa cells with siRNA of control, BRCA1 or RAD51 (drug sensitivity test, Presto Blue; Example 1); settings: siRNA of BRCA1 or RAD51, drug added 24 h later, 96 h culture, FIG. 1B/1C
Experimental: HeLa cells (human cervical cancer cell line) were purchased from ATCC (Manassas, VA, USA). HeLa cells were cultured in DMEM medium (Nissui Pharmaceutical Co., Ltd., Tokyo, Japan) supplemented with 8% Fetal Bovine Serum (FBS) (Biowest Inc., Nuaille, France) and 3% L-glutamine at 37° C. in the presence of 5% CO2.
as §1
HeLa cell suspension adjusted to 5000 cells/ml was seeded in a 96 well plate at 100 μl/well, and the next day, siRNA was introduced, followed by addition of Olaparib or Nicaraven. One hundred twenty hours after gene introduction and Olaparib addition, Hela cells were replaced in a medium to which Presto Blue assay (Thermo-Fisher Scientific, Waltham, MA, USA) had been added so as to have a final concentration of 5%, followed by reaction in the presence of 5% CO2 at 37° C. for 1 hour, and then fluorescence was measured under conditions of an excitation wavelength of 520 nm and a fluorescence wavelength of 580 to 640 nm using GloMax (registered trademark) Explorer Multimode Microplate Reader (Promega, Madison, WI, USA). […]

| SMILES | homologous recombination activity [1] | DNA damage remaining (γ-H2AX intranuclear foci), RAD51-suppressed versus control ([2]; RAD51 expression suppressed) | DNA damage remaining (γ-H2AX intranuclear foci), control and RAD51-suppressed cells ([2]; control and RAD51-suppressed) | cell viability in cells in which expression of RAD51 was suppressed [3] | cell viability when expression of RAD51 is suppressed [4] | cell viability when expression of BRCA1 and RAD51 was suppressed [5] |
| --- | --- | --- | --- | --- | --- | --- |
| CC(CNC(=O)c1cccnc1)NC(=O)c1cccnc1 (centres unmarked) [Nicaraven] | did not affect the homologous recombination ability | DNA damage remained more remarkably in the state in which the expression of RAD51 was suppressed | caused DNA damage to remain in both the control and the state in which the expression of RAD51 was suppressed | cell viability decreased in cells in which expression of RAD51 was suppressed, as compared with the control | cell viability further decreased | cell viability further decreased |
| O=C(c1cc(Cc2n[nH]c(=O)c3ccccc23)ccc1F)N1CCN(C(=O)C2CC2)CC1 [Olaparib, reference compound] |  |  |  |  | decreased cell viability in cells in which expression of RAD51 was suppressed, as compared with the control | decreased cell viability in cells in which expression of BRCA1 and RAD51 was suppressed, as compared with the control |
